Data from publication PMC9011347, “Small-Molecule Inhibitors Targeting Lipolysis in Human Adipocytes” (Journal of the American Chemical Society, 2022).

Key:
Experiment in all cases: TAG hydrolase assay, humanized mouse ATGL variants
Type in all cases: biochemical
mouse ATGL N68K = target: T1, mouse ATGL N68K (Mus musculus, UniProt Q8BJ56, N68K); conditions: variant N68K, NG-497 (10 μM) or Atglistatin (10 μM)
T1 construct: host or cells: Expi293 cells, cell lysate
Experimental: (§1) Figure 5 Analysis of chimeric proteins comprising human and mouse ATGL. (a) Schematic view of the minimal active domain of wild-type and chimeric ATGL variants (c1–c9). Nonidentical aa are indicated in blue and red for mouse and human ATGL, respectively. ATGL variants were expressed in Expi293 cells and TAG hydrolase activity was determined in cell lysates in the presence or absence of NG-497 (10 μM) and Atglistatin (10 μM), respectively. Inhibition of ATGL variants by respective inhibitors (tick mark) and lack of inhibition (cross) is indicated at the right edge. The expression of all ATGL variants was confirmed by Western blotting analysis (Figure S6). (b) Dose-dependent inhibition of human ATGL (aa 1–288) and c1 (human aa 1–158 and mouse aa 159–288) by NG-497. (c) Dose-dependent inhibition of mouse ATGL (aa 1–288) and c2 (mouse aa 1–158 and human aa 159–288) by Ai. IC50 values are shown in the insets. Data are presented as relative inhibition of respective DMSO controls and are indicated as mean ± SD. (d) 3D homology model of the minimal active domain of mouse ATGL (M1–L254) depicted as a cartoon. Residues 1–178 are in blue, and residues 179–254 are in gray. S47 and D166 comprising the active site are represented as green sticks. T101, C106, R109, N111, and S133 are colored in orange, A60, N68, I69, T93, C97, and T146 are colored in magenta. TEXT PRINTED IN THE PICTURE: (b) NG-497: IC50 [μM] (human): 1.3±0.1; IC50 [μM] (c1): 1.3±0.1 | (b) Ai: IC50 [μM] (human): n.det.; IC50 [μM] (c1): n.det. | (c) NG-497: IC50 [μM] (mouse): n.det.; IC50 [μM] (c2): n.det. | (c) Ai: IC50 [μM] (mouse): 2.5±0.3; IC50 [μM] (c2): 2.4±0.1 […]
(§2) The region between aa 60 and 146 of human and mouse ATGL comprises 12 nonidentical aa. We generated 3D homology models for the minimal active domain of mouse ATGL to obtain more detailed insight into the topology of the relevant region (Figure 5d). Based on this model, aa T101, C106, R109, N111, and S133 locate at peripheral (loop) regions (indicated in orange, Figure 5d). […] For all other nonidentical aa (indicated in magenta, Figure 5d), we generated variants with single aa substitutions. The humanized variants A60V, N68K, T93I, and C97F were inactivated by Ai but not NG-497 (Figure 5a).
(§3) Experimental details, materials, and methods
(§4) Expression of recombinant ATGL constructs and preparation of cell lysates. Expi293 cells were cultivated in Expi293 Expression Medium (GIBCO, Thermo Fisher Scientific, Waltham, USA) at standard conditions (37°C, 5% CO2, 95% humidified atmosphere, 125 rpm). DNA constructs containing ATGL from different species and chimeric ATGL variants in pcDNA3.1(+)myc-His C Vector were obtained from BioCat GmbH (Heidelberg, Germany). Cells were transfected with ExpiFectamine293 Transfection Kit (GIBCO) in Opti-Mem reduced serum medium (GIBCO) according to the manufacturer’s instructions. After 48 h, cells were harvested by centrifugation and washed three times with PBS. Cells were disrupted in buffer A (0.25 M sucrose, 1 mM EDTA, 1 mM dithiothreitol, 20µg/ml leupeptin, 2 µg/ml antipain, 1 µg/ml pepstatin, pH 7.0) by sonication (Virsonic 475, Virtis, Gardiner, USA). Nuclei and debris were removed by centrifugation at 1,000 g and 4°C for 10 min. Protein concentrations were determined using Bio-Rad protein assay (Bio-Rad 785, Bio-Rad Laboratories, Munich, Germany) using BSA as standard.
(§5) Expression and purification of mouse CGI-58. CGI-58 was expressed and purified as described 1. In brief, the coding sequence of mouse Cgi-58 was cloned into pHis-Sumo and co-transformed with the plasmid pTf16 expressing the chaperone Tig into E. coli BL21(DE3). Cells were cultured overnight at 37°C and 180 rpm in the presence of 40 µg/ml kanamycin and 34 µg/ml chloramphenicol. Thereafter, cells were transferred into fresh LB medium, grown until OD600 of 0.6, and expression was induced by the addition of 0.5 mM IPTG. After overnight incubation at 30°C, cells were harvested at 4,500 x g and 4°C for 20 min, […]

mouse ATGL C97F = target: T2, mouse ATGL C97F (Mus musculus, UniProt Q8BJ56, C97F); conditions: variant C97F, NG-497 (10 μM) or Atglistatin (10 μM)
T2 construct: host or cells: Expi293 cells, cell lysate
Experimental: as §1, §2, §3, §4, §5

mouse ATGL T93I = target: T3, mouse ATGL T93I (Mus musculus, UniProt Q8BJ56, T93I); conditions: variant T93I, NG-497 (10 μM) or Atglistatin (10 μM)
T3 construct: host or cells: Expi293 cells, cell lysate
Experimental: as §1, §2, §3, §4, §5

Measured: inhibition of TAG hydrolase activity

T2 sequence (Q8BJ56 whole entry C97F): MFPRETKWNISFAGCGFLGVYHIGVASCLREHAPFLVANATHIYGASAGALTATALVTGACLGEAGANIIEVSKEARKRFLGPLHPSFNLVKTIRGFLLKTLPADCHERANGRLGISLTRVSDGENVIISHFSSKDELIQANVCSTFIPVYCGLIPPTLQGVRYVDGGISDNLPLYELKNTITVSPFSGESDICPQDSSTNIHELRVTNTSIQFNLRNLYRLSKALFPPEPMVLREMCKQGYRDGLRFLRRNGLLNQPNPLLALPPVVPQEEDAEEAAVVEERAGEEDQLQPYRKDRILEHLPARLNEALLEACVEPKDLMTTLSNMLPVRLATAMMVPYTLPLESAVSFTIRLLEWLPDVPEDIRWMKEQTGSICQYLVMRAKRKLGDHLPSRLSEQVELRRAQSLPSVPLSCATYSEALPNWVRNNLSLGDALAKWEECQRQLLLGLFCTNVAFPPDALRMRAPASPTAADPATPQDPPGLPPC
T1 sequence (Q8BJ56 whole entry N68K): as the sequence (Q8BJ56 whole entry C97F) above, with N68K, F97C counted along it
T3 sequence (Q8BJ56 whole entry T93I): as the sequence (Q8BJ56 whole entry C97F) above, with T93I, F97C counted along it

CN(C)C(=O)Nc1cccc(-c2ccc(N(C)C)cc2)c1 [Atglistatin, reference compound]
inactivated: all assays above
